Measured values as given in PMC9630261 (2022).

Assays:
Assay in all cases: fluorescence quenching titration of drug with DNA
[1] = test system: D0-thioate (D0-PS) (DNA, duplex, phosphorothioate at all 11 linkages) CGCGCGCGCGCG; conditions: in serum (mouse serum), 37 °C, KD corrected for stoichiometry (per site)
[2] = test system: D0-L-thioate-C16 (DNA, duplex, phosphorothioate at all 23 linkages) CGCGCGCGCGCGCGCGCGCGCGCG; conditions: in serum (mouse serum), 37 °C, KD corrected for stoichiometry (per site)
[3] = test system: D2 (DNA, G4) GGTTGGTGTGGTTGG; conditions: K+ (50 mM K2HPO4, 100 mM KCl per Methods; Table S2 says phosphate sodium), pH 7.00, 20 °C, KD corrected for stoichiometry (per site)
[4] = test system: D0-L-thioate (DNA, duplex, phosphorothioate at all 23 linkages) CGCGCGCGCGCGCGCGCGCGCGCG; conditions: in serum (mouse serum), 37 °C, KD corrected for stoichiometry (per site)
[5] = test system: D0 (DNA, duplex) CGCGCGCGCGCG; conditions: Na+ (50 mM Na2HPO4, 100 mM NaCl), pH 7.00, 20 °C, KD corrected for stoichiometry (per site)
[6] = test system: D1 (same sequence as G-quad) (DNA, G4) GGGCTTTTGGGC; conditions: K+ (50 mM K2HPO4, 100 mM KCl per Methods; Table S2 says phosphate sodium), pH 7.00, 20 °C, KD corrected for stoichiometry (per site)
[7] = test system: Q0 (DNA, aptamer) GGCGACAAGGAAAATCCTTCAACGAAGTGGGTCGCC; conditions: Na+ (50 mM NaH2PO4, adjusted with NaOH); pH 7.00, 20 °C; KD corrected for stoichiometry (per site)
[8] = test system: Q1 (DNA, aptamer) GACAAGGAAAATCCTTCAACGAAGTGGGTCG; conditions: Na+ (50 mM NaH2PO4, adjusted with NaOH); pH 7.00, 20 °C; KD corrected for stoichiometry (per site)
[9] = test system: Q2 (DNA, aptamer) GGCGACAAGGAAAATCCTTTCACGAAGTGGGTCGCCG; conditions: Na+ (50 mM NaH2PO4, adjusted with NaOH); pH 7.00, 20 °C; KD corrected for stoichiometry (per site)

KD [1]	KD [2]	KD [3]	KD [4]	KD [5]	KD [6]	KD [7]	KD [8]	KD [9]	Structure (SMILES)
1020 ± 20 nM	578 ± 100 nM	3760 ± 300 nM	592 ± 100 nM	133 ± 20 nM	703 ± 80 nM				COc1cccc2c1C(=O)c1c(O)c3c(c(O)c1C2=O)C[C@@](O)(C(=O)CO)C[C@@H]3O[C@H]1C[C@H](N)[C@H](O)[C@H](C)O1
						89.7 ± 10 nM	198 ± 6 nM	2740 ± 200 nM	C=C[C@H]1CN2CC[C@H]1C[C@H]2[C@H](O)c1ccnc2ccc(OC)cc12
